Measured values as given in ChEMBL document CHEMBL1201862, “PubChem BioAssay data set” (2004).
Activity calls are given as the source filed them.

Experiments:
[1] = inhibitors of Vif binding to APOBEC3G peptide, primary screen, biochemical, TR-FRET, GST-Vif 1-94, biotin-A3G peptide, dose response retest (AID 1117319); format: functional;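 further: TR-FRET signal of purified GST-Vif binding a biotinylated A3G peptide; inhibitors lower the FRET signal by blocking Vif and A3G binding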
[2] = HEp-2 cell cytotoxicity, dose response, cytotoxicity control for RSV inhibitor project, HTS (AID 2410); format: functional; details: human respiratory syncytial virus
HeLa = experiment: HeLa cell cytotoxicity, dose response, cytotoxicity control for MITF activator project, CellTiter-Glo luminescence, cherry-pick samples (AID 540259); format: functional, cell-based; details: Homo sapiens
[3] = biological target: Intestinal-type alkaline phosphatase (Mus musculus, UniProt P24822); experiment: PubChem AID 488785; format: functional
[4] = biological target: T1, Alkaline phosphatase, tissue-nonspecific isozyme (Homo sapiens, UniProt P05186); experiment: TNAP enzyme inhibition by screening hits, dose response, selectivity assay for mouse IAP inhibitor project, biochemical, human TNAP, uHTS hits (AID 488906); format: functional
T1 sequence (P05186 whole entry): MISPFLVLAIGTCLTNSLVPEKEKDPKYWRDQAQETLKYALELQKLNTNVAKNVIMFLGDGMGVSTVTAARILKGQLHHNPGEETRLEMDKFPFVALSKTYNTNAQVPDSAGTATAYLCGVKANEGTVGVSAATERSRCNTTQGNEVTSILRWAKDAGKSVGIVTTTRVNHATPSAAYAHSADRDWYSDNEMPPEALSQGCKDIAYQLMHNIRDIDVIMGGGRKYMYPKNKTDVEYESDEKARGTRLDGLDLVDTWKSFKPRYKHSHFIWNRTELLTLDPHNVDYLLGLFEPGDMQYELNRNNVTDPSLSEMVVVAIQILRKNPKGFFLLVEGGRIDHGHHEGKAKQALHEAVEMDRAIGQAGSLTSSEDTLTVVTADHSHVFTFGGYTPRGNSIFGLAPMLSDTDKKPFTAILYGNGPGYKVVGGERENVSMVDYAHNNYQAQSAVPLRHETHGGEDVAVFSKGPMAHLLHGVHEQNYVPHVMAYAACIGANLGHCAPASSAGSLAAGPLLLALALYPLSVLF

[5] = biological target: Intestinal-type alkaline phosphatase (Homo sapiens, UniProt P09923); experiment: inhibition of human intestinal alkaline phosphatase – biochemical, dose response (AID 488876); format: functional
[6] = P. falciparum 3D7-ScDHODH growth inhibitors, dose response, SYBR Green, dry powder samples (AID 1159570); format: functional, cell-based;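 further: parasite growth measured after 72 hours of compound exposure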
[7] = P. falciparum Dd2 growth inhibitors, dose response, SYBR Green, cherry-picked samples (AID 1159567); format: functional, cell-based
[8] = P. falciparum Dd2 growth inhibitors, dose response, SYBR Green, dry powder samples (AID 1159566); format: functional, cell-based;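 further: potency for growth inhibition with lower SYBR green DNA signal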
[9] = P. falciparum ATP4 D1247Y mutant growth inhibitors, dose response, NITD609-resistant line, SYBR Green, dry powder (AID 1159571); format: functional, cell-based;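 further: parasites synchronized at ring stage by sorbitol before testing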
HEK293 [10] = experiment: NOD1 signaling inhibitors, primary screen, cell-based, luminescence, uHTS (AID 1578); format: functional; details: Homo sapiens
BJ [11] = experiment: cytotoxicity toward BJ-TERT fibroblasts, dose response, cell-based, RAS-independent, luminescence (AID 1933); format: functional; details: Homo sapiens
HEK293 [12] = experiment: cells; format: functional, cell-based; details: Homo sapiens
BJ [13] = experiment: cells; format: functional, cell-based; details: Homo sapiens
HEK293 [14] = experiment: cells; format: functional, cell-based; details: Homo sapiens; remark: listed apart in the source
HEK293 [15] = experiment: NOD2 signaling inhibitors in MDP-stimulated cells, cell-based, uHTS, luminescence (AID 2001); format: functional; details: Homo sapiens
BJ [16] = experiment: cytotoxicity toward BJ-TERT-LT-ST fibroblasts, dose response, cell-based, RAS-independent, luminescence (AID 1935); format: functional; details: Homo sapiens;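 further: BJ fibroblasts immortalized with TERT plus LT and ST oncogenes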
[17] = cytotoxicity toward DRD oncogenic fibroblasts, dose response, cell-based, non-viral oncogenic, luminescence (AID 1934); format: functional; details: Homo sapiens
[18] = biological target: T2, Replicative DNA helicase DnaB (Mycobacterium tuberculosis, UniProt P9WMR3); experiment: DnaB intein splicing inhibitors, dose response, biochemical, cell-free fluorescence (AID 449749); format: functional
T2 sequence (P9WMR3 whole entry): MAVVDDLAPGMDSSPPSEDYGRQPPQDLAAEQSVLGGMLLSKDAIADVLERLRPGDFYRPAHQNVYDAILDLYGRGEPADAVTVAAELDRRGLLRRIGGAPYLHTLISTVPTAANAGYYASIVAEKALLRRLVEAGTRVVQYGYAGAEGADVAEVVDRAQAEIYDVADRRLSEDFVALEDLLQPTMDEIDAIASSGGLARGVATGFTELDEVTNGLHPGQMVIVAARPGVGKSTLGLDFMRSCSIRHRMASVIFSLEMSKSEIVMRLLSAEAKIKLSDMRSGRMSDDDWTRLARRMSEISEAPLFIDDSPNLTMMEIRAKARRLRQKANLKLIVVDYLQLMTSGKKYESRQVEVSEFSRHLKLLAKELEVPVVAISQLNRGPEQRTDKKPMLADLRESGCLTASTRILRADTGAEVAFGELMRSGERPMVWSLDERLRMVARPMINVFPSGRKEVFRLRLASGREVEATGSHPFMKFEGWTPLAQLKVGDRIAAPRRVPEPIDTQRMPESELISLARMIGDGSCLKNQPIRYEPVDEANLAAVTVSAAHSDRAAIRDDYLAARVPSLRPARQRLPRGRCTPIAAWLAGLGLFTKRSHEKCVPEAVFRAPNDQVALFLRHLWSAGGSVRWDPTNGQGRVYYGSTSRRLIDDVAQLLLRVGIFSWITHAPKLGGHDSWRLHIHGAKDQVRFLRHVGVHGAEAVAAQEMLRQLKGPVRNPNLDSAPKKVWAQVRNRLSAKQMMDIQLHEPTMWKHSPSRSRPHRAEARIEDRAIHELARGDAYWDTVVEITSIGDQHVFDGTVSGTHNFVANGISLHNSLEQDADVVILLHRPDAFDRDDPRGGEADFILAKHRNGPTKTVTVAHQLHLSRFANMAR

Protein RecA = biological target: T3, Protein RecA (Mycobacterium tuberculosis, UniProt P9WHJ3); experiment: Fluorescence Cell-Free Homogeneous Dose Retest to Identify Inhibitors of RecA-Intein Splicing Activity. [Related pubchem assays (depositor defined):AID2097, AID2223, AID489010, AID492950]; format: functional
T3 sequence (P9WHJ3 whole entry): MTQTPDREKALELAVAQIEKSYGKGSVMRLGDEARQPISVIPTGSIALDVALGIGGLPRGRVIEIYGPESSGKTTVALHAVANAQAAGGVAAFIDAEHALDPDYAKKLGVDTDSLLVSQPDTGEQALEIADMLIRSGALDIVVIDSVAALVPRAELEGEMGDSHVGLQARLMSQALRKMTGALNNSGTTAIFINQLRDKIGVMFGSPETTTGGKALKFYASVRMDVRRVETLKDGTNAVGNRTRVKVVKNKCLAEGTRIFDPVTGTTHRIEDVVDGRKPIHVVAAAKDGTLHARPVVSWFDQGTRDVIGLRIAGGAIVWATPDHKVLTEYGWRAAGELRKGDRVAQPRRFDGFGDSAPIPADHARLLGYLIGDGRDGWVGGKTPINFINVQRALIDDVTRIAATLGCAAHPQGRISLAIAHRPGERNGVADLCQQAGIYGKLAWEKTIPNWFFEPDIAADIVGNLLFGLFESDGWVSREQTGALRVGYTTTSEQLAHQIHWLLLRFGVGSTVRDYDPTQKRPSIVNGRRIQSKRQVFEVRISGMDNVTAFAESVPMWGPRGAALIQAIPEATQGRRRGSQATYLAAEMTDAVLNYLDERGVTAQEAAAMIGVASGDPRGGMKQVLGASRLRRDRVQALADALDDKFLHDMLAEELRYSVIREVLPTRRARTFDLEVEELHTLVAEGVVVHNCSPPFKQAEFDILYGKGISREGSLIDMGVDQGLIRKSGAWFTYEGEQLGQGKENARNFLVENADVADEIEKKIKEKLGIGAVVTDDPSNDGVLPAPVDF

Large T antigen = Large T antigen (Simian virus 40, UniProt P03070); format: functional, Betapolyomavirus macacae;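 further: Confirmatory-stage PubChem screen for compounds that inhibit SV40 T antigen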
[19] = biological target: Luciferin 4-monooxygenase (Photinus pyralis, UniProt P08659); experiment: firefly luciferase enzyme inhibitors, dose response, biochemical, luminescence (AID 1891)
[20] = Luminescence Cell-Based Dose Confirmation HTS to Identify Inhibitors of Platelet Dense Granule Release. [Related pubchem assays: 1663 (Primary HTS), 1678 (Summary of Project)]; format: functional
[21] = biological target: T4, Rac GTPase-activating protein 1 (Homo sapiens, UniProt Q9H0H5); experiment: MgcRacGAP GTPase-activating activity inhibitors, confirmation, biochemical, ADP Hunter fluorescence, primary and confirmatory (AID 624330); format: functional
T4 sequence (Q9H0H5 whole entry): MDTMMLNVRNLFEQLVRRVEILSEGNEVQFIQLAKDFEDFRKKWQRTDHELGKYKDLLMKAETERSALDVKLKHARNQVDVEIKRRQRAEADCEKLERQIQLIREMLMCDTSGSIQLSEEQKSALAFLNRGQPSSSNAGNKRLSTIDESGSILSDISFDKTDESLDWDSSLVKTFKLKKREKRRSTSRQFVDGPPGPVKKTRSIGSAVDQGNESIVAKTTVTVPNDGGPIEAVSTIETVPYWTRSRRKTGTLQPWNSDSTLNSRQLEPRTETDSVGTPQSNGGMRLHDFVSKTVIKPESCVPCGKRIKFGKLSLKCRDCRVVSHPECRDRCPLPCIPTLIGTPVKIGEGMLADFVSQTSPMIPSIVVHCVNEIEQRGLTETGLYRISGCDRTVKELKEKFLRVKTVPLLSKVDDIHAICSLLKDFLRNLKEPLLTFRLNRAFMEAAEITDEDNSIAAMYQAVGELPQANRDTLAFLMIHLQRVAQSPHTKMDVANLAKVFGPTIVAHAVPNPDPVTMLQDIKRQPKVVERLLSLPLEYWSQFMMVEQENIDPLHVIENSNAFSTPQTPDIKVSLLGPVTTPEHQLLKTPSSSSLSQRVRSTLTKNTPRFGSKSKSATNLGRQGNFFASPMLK

fMet-Leu-Phe receptor = biological target: T5, fMet-Leu-Phe receptor (Homo sapiens, UniProt P21462); experiment: FPR ligands, dose response (AID 519); format: functional
T5 sequence (P21462 whole entry): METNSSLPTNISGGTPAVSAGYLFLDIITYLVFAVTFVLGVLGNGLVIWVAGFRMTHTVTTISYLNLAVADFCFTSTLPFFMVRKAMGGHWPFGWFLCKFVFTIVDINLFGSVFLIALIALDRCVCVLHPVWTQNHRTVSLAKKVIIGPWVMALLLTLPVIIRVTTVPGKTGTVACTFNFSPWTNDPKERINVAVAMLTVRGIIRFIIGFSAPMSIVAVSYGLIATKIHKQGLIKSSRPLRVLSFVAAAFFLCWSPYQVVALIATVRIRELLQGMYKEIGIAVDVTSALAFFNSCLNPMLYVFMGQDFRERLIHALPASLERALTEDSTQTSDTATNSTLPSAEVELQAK

Cytochrome P450 2C9 = Cytochrome P450 2C9 (Homo sapiens, UniProt P11712)
Sequence of Cytochrome P450 2C9 (P11712 whole entry): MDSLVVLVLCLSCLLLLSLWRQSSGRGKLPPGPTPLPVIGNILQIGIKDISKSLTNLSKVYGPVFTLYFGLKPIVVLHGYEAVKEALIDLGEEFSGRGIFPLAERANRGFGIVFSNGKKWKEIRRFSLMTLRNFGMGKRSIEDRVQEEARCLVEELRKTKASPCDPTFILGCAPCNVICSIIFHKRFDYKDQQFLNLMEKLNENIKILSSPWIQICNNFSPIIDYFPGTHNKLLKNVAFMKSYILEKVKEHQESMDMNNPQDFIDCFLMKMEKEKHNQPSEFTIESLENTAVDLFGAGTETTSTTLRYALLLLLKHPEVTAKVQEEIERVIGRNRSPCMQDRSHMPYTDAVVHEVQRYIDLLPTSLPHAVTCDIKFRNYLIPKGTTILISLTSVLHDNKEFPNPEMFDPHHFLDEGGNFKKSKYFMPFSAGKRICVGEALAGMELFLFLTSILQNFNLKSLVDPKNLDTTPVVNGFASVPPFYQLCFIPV

Sequence of Intestinal-type alkaline phosphatase (Mus musculus, UniProt P24822) (P24822 whole entry): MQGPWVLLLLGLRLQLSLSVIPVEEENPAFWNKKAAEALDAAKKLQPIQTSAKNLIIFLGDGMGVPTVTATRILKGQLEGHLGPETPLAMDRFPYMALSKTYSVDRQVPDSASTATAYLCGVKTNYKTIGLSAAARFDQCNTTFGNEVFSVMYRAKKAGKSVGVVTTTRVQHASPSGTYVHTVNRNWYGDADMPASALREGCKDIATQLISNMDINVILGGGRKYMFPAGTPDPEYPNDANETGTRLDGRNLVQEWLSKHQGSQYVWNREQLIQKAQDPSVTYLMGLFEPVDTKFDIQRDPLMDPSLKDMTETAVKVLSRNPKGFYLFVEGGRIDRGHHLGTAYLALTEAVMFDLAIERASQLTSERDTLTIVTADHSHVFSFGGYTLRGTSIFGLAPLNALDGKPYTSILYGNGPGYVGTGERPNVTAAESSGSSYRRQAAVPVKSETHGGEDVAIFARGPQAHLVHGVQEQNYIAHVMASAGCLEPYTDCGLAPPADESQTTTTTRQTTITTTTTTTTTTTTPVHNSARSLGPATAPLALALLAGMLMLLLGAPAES
Sequence of Intestinal-type alkaline phosphatase (Homo sapiens, UniProt P09923) (P09923 whole entry): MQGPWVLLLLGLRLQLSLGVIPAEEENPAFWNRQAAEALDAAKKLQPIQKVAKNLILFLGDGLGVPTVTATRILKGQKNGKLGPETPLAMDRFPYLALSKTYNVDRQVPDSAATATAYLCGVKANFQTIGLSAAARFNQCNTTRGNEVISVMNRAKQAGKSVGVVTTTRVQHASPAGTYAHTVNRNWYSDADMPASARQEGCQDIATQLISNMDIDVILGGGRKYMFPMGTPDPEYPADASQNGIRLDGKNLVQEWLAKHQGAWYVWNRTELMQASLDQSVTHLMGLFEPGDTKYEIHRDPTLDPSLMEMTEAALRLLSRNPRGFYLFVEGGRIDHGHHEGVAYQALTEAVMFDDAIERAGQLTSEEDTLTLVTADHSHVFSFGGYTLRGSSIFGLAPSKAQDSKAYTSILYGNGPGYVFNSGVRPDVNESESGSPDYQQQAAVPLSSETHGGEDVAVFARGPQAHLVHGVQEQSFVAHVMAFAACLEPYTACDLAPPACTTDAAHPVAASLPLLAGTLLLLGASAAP
Sequence of Luciferin 4-monooxygenase (P08659 whole entry): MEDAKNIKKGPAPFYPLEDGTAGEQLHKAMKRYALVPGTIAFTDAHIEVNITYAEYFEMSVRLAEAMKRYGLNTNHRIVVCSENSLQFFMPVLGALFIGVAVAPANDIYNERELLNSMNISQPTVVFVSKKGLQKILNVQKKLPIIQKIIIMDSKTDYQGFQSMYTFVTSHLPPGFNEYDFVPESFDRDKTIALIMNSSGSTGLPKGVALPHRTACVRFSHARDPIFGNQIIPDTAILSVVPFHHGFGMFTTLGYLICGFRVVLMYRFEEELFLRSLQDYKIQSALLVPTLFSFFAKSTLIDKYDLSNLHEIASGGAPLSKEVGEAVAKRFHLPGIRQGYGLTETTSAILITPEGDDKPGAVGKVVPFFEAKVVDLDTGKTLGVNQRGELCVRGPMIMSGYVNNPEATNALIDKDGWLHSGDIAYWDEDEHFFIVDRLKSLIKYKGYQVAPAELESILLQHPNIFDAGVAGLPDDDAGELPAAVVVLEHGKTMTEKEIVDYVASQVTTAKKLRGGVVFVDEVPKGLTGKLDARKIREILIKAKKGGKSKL
Sequence of Large T antigen (P03070 whole entry): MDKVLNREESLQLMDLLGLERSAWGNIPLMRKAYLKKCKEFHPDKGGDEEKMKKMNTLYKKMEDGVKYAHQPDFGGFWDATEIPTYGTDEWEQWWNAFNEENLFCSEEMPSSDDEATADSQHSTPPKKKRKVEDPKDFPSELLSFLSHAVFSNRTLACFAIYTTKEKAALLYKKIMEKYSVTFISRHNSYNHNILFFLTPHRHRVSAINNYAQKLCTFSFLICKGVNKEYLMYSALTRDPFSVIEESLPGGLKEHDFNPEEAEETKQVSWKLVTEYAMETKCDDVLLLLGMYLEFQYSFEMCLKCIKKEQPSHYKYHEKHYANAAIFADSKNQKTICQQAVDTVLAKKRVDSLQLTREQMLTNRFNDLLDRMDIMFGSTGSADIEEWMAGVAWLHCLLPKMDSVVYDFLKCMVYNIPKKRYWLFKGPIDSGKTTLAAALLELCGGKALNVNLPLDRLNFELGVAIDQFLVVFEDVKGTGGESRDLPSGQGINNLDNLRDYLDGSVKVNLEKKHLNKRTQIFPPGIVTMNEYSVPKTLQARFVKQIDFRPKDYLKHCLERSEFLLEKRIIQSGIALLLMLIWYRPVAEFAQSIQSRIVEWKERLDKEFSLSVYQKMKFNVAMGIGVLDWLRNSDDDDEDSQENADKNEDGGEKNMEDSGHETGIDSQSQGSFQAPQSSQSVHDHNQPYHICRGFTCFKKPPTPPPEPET

C/C(=C\C(=O)c1ccc(Br)cc1)N1CCCCC1
IC50 [1]: > 100 µM (active)

COc1ccccc1-c1cc2nc(C)cc(C)n2n1
CC50 [2]: 22.5 µM (active) | IC50 (cells): 18.8 µM (active)

O=c1oc(-c2cccs2)nc2sc3c(c12)CCCCC3
AC50 (HeLa): 47.1 µM (active)

COc1ccc(-c2ccc3c(N)c(C(=O)NC(C)C)sc3n2)cc1OC
CC50 [2]: > 50 µM (active) | IC50 (cells): 35.9 µM (active)

O=C1c2cccc(O)c2C(=O)c2c(O)cc(CO)cc21 [ALOE-EMODIN]
IC50 [3]: 2.88 µM (active) | IC50 [4]: > 100 µM (inactive) | IC50 [5]: > 100 µM (inactive)

Cc1ccc(OC(=O)c2cccc(S(=O)(=O)N3CCCC3)c2)c(-n2nc3ccccc3n2)c1
AC50 (HeLa): 260 µM (active)

COc1ccc(C#Cc2ccc3c(c2)O[C@H](CN(C)S(=O)(=O)c2ccccc2F)[C@@H](C)CN([C@H](C)CO)S3(=O)=O)cc1
AC50 [6]: 1.38 µM (active) | AC50 [7]: 1.7 µM (active) | AC50 [8]: 1.12 µM (active) | AC50 [9]: 1.21 µM (active)

CCc1nc(N2CCN(C(=O)CCl)CC2)c2c3c(sc2n1)CC(C)CC3 (stereo not drawn)
EC50 (HEK293 [10]): > 20 µM (inactive) | EC50 (BJ [11]): 1.62 µM (active) | IC50 (HEK293 [12]): 8.57 µM (active) | EC50 (BJ [13]): 9.44 µM (inconclusive) | IC50 (HEK293 [14]): > 20 µM (inactive) | IC50 (HEK293 [15]): 12 µM (inactive) | EC50 (BJ [16]): 5.72 µM (inconclusive) | EC50 [17]: 5.84 µM (active) | AC50 [18]: 1.92 µM (active) | EC50 (Protein RecA): 0.729 µM (active)

Cc1ccc(-n2nnnc2SCn2nnc3ccccc3c2=O)cc1
IC50 [1]: > 100 µM (active)

Cc1nonc1C(=O)N/N=C/c1ccc(O)c(O)c1
IC50 (Large T antigen): 3.81 µM (active) | EC50 [19]: 4.26 µM (active) | EC50 [20]: 0.868 µM (active) | IC50 [3]: 9.92 µM (active) | IC50 [4]: 16.8 µM (active) | IC50 [5]: 14 µM (active) | IC50 [21]: 18.6 µM (active)

C=CCn1cc(CN2CCC(C(=O)Nc3cccc(-c4cccc(Cl)c4)c3)CC2)c(C)n1
IC50 [3]: 10.3 µM (active) | IC50 [4]: 5.84 µM (active) | IC50 [5]: 14.3 µM (active)

CCN(CC(=O)Nc1c(F)cccc1F)C(=O)CSC(=S)N1CCCC1
IC50 [1]: > 100 µM (active)

Cc1ccc(C(=O)C2=C(O)C(=O)N(c3cc(C)on3)C2c2cccc(Br)c2)cc1 (stereo not drawn)
Ki (fMet-Leu-Phe receptor): > 66.7 µM (inactive)

O=S(=O)(c1ccc2c(c1)OCCO2)N1CCC(c2nc(O)c3nnn(Cc4c(F)cccc4Cl)c3n2)CC1
CC50 [2]: 34.2 µM (active) | IC50 (cells): 9.34 µM (active)

Clc1ccc(-c2nnc(CCc3ccccc3)o2)c(Cl)c1
AC50 (HeLa): 78.9 µM (active) | AC50 (Cytochrome P450 2C9): 39.8 µM (inconclusive)

COC(=O)N/N=C/c1ccc(-c2cccc(Cl)c2)o1
CC50 [2]: 28.3 µM (active) | IC50 (cells): 24.9 µM (active)
